The record followed here is patent US10381110B2, “Molecules” (University of Dundee, priority 2010, dated 2019).

Structures can show the parent of a compound that is named as a salt. Where two headings read alike, the source gives them in different places.

In one assay the target is T1, α1B (Alpha1B) (Homo sapiens, UniProt P35368).
T1 sequence (P35368 1-520): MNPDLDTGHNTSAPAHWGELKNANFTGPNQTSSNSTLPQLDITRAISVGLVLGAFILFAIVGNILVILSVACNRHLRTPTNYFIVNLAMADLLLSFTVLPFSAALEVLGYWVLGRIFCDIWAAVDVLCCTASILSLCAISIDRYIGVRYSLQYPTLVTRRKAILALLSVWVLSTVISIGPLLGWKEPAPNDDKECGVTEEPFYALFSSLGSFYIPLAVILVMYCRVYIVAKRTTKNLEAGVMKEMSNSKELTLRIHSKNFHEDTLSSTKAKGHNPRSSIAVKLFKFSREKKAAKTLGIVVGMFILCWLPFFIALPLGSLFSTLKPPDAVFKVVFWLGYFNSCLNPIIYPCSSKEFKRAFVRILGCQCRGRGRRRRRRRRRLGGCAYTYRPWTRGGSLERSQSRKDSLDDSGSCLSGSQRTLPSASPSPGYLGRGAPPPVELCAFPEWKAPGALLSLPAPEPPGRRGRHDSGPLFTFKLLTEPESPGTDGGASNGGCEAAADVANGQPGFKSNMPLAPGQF
As to the kind of experiment: Secondary radioligand binding assay (Ki).

A further assay deals with T2, Alpha1D (Homo sapiens, UniProt P25100).
T2 sequence (P25100 1-572): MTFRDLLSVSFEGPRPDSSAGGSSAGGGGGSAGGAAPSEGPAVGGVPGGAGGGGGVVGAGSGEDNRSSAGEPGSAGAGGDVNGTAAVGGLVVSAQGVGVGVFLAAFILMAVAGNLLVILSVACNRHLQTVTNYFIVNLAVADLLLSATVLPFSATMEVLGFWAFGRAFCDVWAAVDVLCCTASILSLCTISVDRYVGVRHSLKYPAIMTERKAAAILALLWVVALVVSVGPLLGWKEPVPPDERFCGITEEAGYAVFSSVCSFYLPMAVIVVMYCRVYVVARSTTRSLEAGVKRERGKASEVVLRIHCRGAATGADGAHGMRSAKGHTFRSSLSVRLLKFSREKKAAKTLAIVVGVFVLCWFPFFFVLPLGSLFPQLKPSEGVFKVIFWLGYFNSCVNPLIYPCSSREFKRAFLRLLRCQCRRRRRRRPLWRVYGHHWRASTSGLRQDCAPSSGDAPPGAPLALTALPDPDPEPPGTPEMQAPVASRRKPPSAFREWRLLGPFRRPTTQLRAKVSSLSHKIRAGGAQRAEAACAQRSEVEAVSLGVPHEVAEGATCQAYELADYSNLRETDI
Description: Secondary radioligand binding assay (Ki).

The target in a further assay is dopamine D1 (Homo sapiens, UniProt P21728). Description: Secondary radioligand binding assay (Ki).
In the next assay the target is dopamine D2 (Homo sapiens, UniProt P14416). As to the kind of experiment: Secondary radioligand binding assay (Ki). Conditions: for α1/D2: Table 22: Selectivity of Dopamine D2 over average of α1 Receptors; for α1A/D2 / α1B/D2 / α1D/D2: Table 22: Selectivity of Dopamine D2 over α1 Receptors, ratio of Ki.
For the next assay, the target named is 5-HT1D (Homo sapiens, UniProt P28221). Description: Secondary radioligand binding assay (Ki).
Another assay addresses 5-HT2A (Homo sapiens, UniProt P28223). Description: Secondary radioligand binding assay (Ki).
Another assay deals with 5-HT5A (Homo sapiens, UniProt P47898). As to the kind of experiment: Secondary radioligand binding assay (Ki).
A further assay addresses 5-HT7 (Homo sapiens, UniProt P34969). As to the kind of experiment: Secondary radioligand binding assay (Ki).
Another assay concerns the target T3, Alpha1B (Homo sapiens, UniProt P35368).
T3 sequence (P35368 1-520): T1 sequence (P35368 1-520)
Description: Primary radioligand binding assay (NIMH PDSP). Note: test concentration or dose not given here. To be noted: primary radiobinding assay, [3H]Prazosin.

The target in a further assay is 5-HT1B (Homo sapiens, UniProt P28222). As to the kind of experiment: Secondary radioligand binding assay (Ki).
Another assay concerns the target dopamine D5 (Homo sapiens, UniProt P21918). Description: Secondary radioligand binding assay (Ki). To be noted: read-out: Experimental Receptor Binding Data-Ki D5; Table 25, GPCR panel.
The next assay addresses T4, 5-HT2C (Homo sapiens, UniProt P28335).
T4 sequence (P28335 33-458): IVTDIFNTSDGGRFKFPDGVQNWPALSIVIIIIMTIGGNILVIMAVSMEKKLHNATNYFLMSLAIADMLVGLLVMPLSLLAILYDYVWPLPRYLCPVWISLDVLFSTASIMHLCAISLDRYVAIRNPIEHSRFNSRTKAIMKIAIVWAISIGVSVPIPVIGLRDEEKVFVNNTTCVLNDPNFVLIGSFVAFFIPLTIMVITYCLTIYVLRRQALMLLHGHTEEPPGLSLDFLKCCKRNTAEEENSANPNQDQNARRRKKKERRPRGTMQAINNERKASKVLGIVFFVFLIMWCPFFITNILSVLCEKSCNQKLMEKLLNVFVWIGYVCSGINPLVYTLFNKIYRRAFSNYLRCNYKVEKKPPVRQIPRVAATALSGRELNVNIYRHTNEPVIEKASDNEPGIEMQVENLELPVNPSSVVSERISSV
As to the kind of experiment: Secondary radioligand binding assay (Ki).

The target of the next assay is T5, 5-HT3 (Homo sapiens, UniProt P46098).
T5 sequence (P46098 24-478): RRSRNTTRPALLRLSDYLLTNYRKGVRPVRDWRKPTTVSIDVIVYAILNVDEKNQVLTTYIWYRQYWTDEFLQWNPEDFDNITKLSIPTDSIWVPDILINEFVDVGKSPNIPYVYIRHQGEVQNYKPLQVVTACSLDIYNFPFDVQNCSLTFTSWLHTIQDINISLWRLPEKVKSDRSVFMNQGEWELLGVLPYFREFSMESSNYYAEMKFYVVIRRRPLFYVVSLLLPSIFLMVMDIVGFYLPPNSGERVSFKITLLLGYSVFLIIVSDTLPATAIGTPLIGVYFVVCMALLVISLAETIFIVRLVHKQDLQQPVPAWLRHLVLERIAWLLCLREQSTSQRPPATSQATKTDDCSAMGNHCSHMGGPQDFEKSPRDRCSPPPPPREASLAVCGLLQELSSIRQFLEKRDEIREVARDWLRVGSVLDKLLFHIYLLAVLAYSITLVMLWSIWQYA
Description: Secondary radioligand binding assay (Ki).

Setting [1] is: read-out: Experimental Receptor Binding Data-Ki ALPHA_1B, Table 25, GPCR panel.
[2] abbreviates: read-out: Experimental Receptor Binding Data-Ki ALPHA_1D, Table 25, GPCR panel.
Where [3] appears, read: read-out: Experimental Receptor Binding Data-Ki D1, Table 25, GPCR panel.
The mark [4] stands for this setting: read-out: Experimental Receptor Binding Data-Ki D2, Table 25, GPCR panel.

dopamine D1, sequence (P21728 whole entry): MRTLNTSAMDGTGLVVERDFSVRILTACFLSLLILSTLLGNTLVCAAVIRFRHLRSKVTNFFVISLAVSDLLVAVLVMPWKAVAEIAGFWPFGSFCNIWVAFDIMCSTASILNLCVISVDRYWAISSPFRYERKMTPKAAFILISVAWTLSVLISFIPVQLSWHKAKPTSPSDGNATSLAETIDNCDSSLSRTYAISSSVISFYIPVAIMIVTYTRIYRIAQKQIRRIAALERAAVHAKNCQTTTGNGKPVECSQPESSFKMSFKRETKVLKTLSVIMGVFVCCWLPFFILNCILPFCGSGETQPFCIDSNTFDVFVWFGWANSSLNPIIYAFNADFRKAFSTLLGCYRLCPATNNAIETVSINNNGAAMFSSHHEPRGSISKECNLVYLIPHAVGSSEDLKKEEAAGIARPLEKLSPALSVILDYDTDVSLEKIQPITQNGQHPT
5-HT1D, sequence (P28221 whole entry, species assumed): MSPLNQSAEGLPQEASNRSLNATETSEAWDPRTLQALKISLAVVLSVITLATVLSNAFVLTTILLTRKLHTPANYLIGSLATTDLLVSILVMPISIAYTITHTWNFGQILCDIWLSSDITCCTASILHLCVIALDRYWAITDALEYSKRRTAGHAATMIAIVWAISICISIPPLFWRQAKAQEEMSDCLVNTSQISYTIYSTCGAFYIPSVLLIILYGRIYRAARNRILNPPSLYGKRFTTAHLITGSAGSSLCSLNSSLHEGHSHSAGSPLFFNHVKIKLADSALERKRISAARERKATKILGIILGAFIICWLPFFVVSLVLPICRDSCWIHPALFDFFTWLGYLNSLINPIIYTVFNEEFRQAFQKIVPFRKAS
5-HT7, sequence (P34969 whole entry, species assumed): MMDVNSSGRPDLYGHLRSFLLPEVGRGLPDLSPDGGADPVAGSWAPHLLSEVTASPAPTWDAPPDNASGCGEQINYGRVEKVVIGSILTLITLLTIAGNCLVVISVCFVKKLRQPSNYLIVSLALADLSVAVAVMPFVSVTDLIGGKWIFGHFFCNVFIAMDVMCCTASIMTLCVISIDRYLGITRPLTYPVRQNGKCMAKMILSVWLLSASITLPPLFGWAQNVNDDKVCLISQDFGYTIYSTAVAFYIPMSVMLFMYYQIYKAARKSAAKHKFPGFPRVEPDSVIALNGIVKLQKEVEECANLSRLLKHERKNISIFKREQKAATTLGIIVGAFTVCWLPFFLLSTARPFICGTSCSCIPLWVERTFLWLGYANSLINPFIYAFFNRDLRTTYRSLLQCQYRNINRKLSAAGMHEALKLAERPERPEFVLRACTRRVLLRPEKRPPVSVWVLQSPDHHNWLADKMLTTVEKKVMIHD
5-HT1B, sequence (P28222 whole entry, species assumed): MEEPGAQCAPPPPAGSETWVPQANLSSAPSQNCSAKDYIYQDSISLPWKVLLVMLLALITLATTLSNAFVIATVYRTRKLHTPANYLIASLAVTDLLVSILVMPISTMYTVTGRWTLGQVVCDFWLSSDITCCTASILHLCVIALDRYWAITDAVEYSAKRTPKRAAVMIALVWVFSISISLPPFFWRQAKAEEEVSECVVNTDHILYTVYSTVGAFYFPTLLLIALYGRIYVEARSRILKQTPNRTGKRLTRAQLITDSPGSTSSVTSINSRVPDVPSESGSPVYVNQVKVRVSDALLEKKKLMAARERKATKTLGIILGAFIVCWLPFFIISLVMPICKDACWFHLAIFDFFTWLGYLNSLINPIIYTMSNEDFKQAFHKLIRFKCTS
5-HT5A, sequence (P47898 whole entry, species assumed): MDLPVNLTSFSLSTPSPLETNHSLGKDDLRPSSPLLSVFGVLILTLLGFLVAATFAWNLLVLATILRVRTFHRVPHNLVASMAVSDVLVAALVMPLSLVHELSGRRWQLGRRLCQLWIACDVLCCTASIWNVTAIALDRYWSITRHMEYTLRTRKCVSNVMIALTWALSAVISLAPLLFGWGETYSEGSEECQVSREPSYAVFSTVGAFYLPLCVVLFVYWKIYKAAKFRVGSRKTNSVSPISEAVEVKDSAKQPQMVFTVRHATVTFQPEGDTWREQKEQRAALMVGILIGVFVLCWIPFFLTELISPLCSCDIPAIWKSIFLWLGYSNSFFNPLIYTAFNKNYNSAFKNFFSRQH
dopamine D2, sequence (P14416 whole entry, species assumed): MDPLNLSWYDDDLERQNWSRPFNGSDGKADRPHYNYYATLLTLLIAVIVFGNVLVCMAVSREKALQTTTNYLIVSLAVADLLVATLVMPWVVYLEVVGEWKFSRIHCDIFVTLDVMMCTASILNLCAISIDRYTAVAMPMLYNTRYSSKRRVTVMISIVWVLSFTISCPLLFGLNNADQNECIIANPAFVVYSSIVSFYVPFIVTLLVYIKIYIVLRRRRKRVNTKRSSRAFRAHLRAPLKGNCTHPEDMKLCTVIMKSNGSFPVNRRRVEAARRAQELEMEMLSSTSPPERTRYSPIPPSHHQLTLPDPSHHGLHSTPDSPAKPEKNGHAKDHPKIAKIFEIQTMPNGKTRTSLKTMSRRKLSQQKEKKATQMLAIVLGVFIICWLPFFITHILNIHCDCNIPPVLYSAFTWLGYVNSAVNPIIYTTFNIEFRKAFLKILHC
5-HT2A, sequence (P28223 whole entry, species assumed): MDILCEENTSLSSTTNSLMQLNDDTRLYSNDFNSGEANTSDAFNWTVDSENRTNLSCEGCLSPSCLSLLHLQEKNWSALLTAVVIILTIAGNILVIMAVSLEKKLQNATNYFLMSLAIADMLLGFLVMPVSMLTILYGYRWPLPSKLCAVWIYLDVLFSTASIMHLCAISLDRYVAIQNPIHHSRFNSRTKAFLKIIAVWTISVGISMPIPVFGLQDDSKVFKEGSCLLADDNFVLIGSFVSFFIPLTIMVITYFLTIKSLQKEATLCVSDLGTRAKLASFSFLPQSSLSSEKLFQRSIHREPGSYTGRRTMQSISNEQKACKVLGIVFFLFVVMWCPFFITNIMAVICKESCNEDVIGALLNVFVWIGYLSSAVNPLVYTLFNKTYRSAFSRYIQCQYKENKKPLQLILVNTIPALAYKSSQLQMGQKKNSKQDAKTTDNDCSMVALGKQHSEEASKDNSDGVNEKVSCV
dopamine D5, sequence (P21918 whole entry): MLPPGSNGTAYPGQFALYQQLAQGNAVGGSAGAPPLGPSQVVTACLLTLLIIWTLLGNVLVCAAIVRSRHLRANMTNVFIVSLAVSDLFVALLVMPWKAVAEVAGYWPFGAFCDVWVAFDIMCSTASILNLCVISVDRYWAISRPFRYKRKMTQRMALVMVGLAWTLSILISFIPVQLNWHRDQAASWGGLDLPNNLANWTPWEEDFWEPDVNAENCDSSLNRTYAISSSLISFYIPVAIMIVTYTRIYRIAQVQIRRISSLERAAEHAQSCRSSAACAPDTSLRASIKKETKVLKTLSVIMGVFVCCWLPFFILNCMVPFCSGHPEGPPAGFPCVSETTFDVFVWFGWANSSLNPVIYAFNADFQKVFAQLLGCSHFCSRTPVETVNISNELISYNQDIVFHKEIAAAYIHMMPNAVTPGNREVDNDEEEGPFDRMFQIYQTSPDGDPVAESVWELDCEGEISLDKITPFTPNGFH
Description for 5-HT1B: (§1) Assay Buffer: Standard Binding Buffer (50 mM Tris-HCl, 10 mM MgCl2, 1 mM EDTA, pH 7.4)
(§2) Membrane Fraction Source: Transiently or stably transfected cell lines (e.g., HEK293, COS, CHO, NIH3T3)
(§3) Radioligand is diluted to five times the assay concentration (see Table 18) in Standard Binding Buffer. Typically, the assay concentration of radioligand is a value between one half the KD and the KD of a particular radioligand at its target. 50 μl aliquots of radioligand are dispensed into the wells of a 96-well plate containing 100 μl of Standard Binding Buffer. Then, duplicate 50 μl aliquots of the test and reference compound dilutions are added.
(§4) The 250 μl reactions are incubated at room temperature and shielded from light (to prevent photolysis of light-sensitive ligands) for 1.5 hours, then harvested by rapid filtration onto Whatman GF/B glass fiber filters pre-soaked with 0.3% polyethyleneimine using a 96-well Brandel harverster. Four rapid 500 μl washes are performed with chilled Standard Binding Buffer to reduce non-specific binding. Filters are placed in 6 ml scintillation tubes and allowed to dry overnight. The next day, 4 ml of EcoScint scintillation cocktail (National Diagnostics) are added to each tube. The tubes are capped, labeled, and counted by liquid scintillation counting. […] The filter mats are dried, then scintillant is melted onto the filters and the radioactivity retained on the filters is counted in a Microbeta scintillation counter.
(§5) Raw data (dpm) representing total radioligand binding (i.e. specific+non-specific binding) are plotted as a function of the logarithm of the molar concentration of the competitor (i.e. test or reference compound).
Description for 5-HT1D: as §1, §2, §3, §4, §5
Description for 5-HT2A: as §1, §2, §3, §4, §5
Description for 5-HT2C: as §1, §2, §3
(§6) The 250 μl reactions are incubated at room temperature and shielded from light (to prevent photolysis of light-sensitive ligands) for 1.5 hours, then harvested by rapid filtration onto Whatman GF/B glass fiber filters pre-soaked with 0.3% polyethyleneimine using a 96-well Brandel harverster. Four rapid 500 μl washes are performed with chilled Standard Binding Buffer to reduce non-specific binding. Filters are placed in 6 ml scintillation tubes and allowed to dry overnight. […] The tubes are capped, labeled, and counted by liquid scintillation counting. […] The filter mats are dried, then scintillant is melted onto the filters and the radioactivity retained on the filters is counted in a Microbeta scintillation counter. […]
Description for 5-HT3: as §1, §2, §3, §6
Description for 5-HT5A: as §1, §2, §3, §4, §5
Description for 5-HT7: as §1, §2, §3, §4, §5
Description for Alpha1D: as §3, §4, §5
(§7) Adrenergic Receptors: α1A, α1B, α2A, α2B, α2C, β1, β2, β3
(§8) Membrane Fraction Source: Transiently or stably transfected cell lines (e.g. HEK293, COS, CHO, NIH3T3)
(§9) The method is carried out in the manner described for the serotonin receptor assay above, except where described below. Eleven dilutions (5× assay concentration) of the test and reference (see Table 20) compounds are prepared in the appropriate buffer by serial dilution, as previously described. Radioligand is diluted to five times the assay concentration (see Table 21) in the appropriate buffer.
(§10) The 250 μl reactions are incubated at room temperature and shielded from light (to prevent photolysis of light-sensitive ligands) for 1 hour (for α1 receptors, 40 min for α2 receptors, and 1.5 hours for β receptors), then harvested by rapid filtration onto Whatman GF/B glass fiber filters pre-soaked with 0.3% polyethyleneimine using a 96-well Brandel harverster. Four rapid 500-μl washes are performed with chilled distilled water (for α1 and β receptors) or 0.1% polyethyleneimine (for α2 receptors) to reduce non-specific binding. Filters are placed in 6 ml scintillation tubes and allowed to dry overnight and the samples are treated to obtain data as described above.
Description for dopamine D1: as §3, §4, §5
(§11) Assay Buffers: Dopamine Binding Buffer (50 mM NaCl, 50 mM HEPES-HCl, 5 mM MgCl2, 0.5 mM EDTA, pH 7.4)
as §8
(§12) The method is carried out in the manner described for the serotonin receptor assay above. Eleven dilutions (5× assay concentration) of the test and reference (see Table 19) compounds are prepared in Dopamine Binding Buffer by serial dilution, as previously described. Radioligand is diluted to five times the assay concentration (see Table 20) in Dopamine Binding Buffer.
Description for dopamine D2: as §3, §4, §5, §11, §8, §12
Description for dopamine D5: as §3
The 250 μl reactions are incubated at room temperature and shielded from light (to prevent photolysis of light-sensitive ligands) for 1.5 hours, then harvested by rapid filtration onto Whatman GF/B glass fiber filters pre-soaked with 0.3% polyethyleneimine using a 96-well Brandel harverster. Four rapid 500 μl washes are performed with chilled Standard Binding Buffer to reduce non-specific binding. Filters are placed in 6 ml scintillation tubes and allowed to dry overnight. The next day, 4 ml of EcoScint scintillation cocktail (National Diagnostics) are added to each tube. The tubes are capped, labeled, and counted by liquid scintillation counting. […] The filter mats are dried, then scintillant is melted onto the filters and the radioactivity retained on the filters is counted in a Microbeta scintillation counter. […]
Description for α1B (Alpha1B): as §3, §4, §5, §7, §8, §9, §10

As to `COc1ccc2c(c1)CN(CCCN1CCN(c3ccccc3OC)CC1)C2=O` [GFR-VII-290], the Ki on α1B (Alpha1B) (setting [1]) was found to be 0.608 µM; at α1B (Alpha1B) (read-out: Kiα1B), 0.608 µM; at Alpha1D (setting [2]), 0.056 µM; at Alpha1D (read-out: Kiα1D), 0.056 µM; on dopamine D1 (setting [3]), 2.73 µM; on dopamine D2 (setting [4]) it was 1.37 µM. Also, the Ki at dopamine D2 (read-out: KiD2) is 1.37 µM; at 5-HT1D, 0.829 µM; on 5-HT2A, 1 µM; on 5-HT5A, 2.47 µM; on 5-HT7, 0.732 µM. Further, on dopamine D2, the α1/D2 is 0.177. Moreover, the α1A/D2 at dopamine D2 was 0.044. The α1B/D2 on dopamine D2 was 0.445. Moreover, the α1D/D2 at dopamine D2 came to 0.041. Also, the “Alpha1B (% inh)” value on Alpha1B is recorded as 52.4 % inh.
As to `COc1ccc2c(c1)C(=O)N(CCN1CCN(c3ccccc3OC)CC1)C2` [GFR-VII-280], the Ki was determined as 0.0387 µM at α1B (Alpha1B) (setting [1]); 0.0387 µM at α1B (Alpha1B) (read-out: Kiα1B); 0.0124 µM on Alpha1D (setting [2]); 0.0124 µM on Alpha1D (read-out: Kiα1D); 1.65 µM on dopamine D2 (setting [4]); 1.65 µM on dopamine D2 (read-out: KiD2). For the same compound, the Ki on 5-HT1B (read-out: Experimental Receptor Binding Data-Ki 5HT1B, Table 25, GPCR panel) turned out to be 0.306 µM; at 5-HT1D (read-out: Experimental Receptor Binding Data-Ki 5HT1D, Table 25, GPCR panel), 0.139 µM; at 5-HT5A (read-out: Experimental Receptor Binding Data-Ki 5HT5A, Table 25, GPCR panel), 2.15 µM. Also, the α1/D2 on dopamine D2 turned out to be 0.014. Also, the α1A/D2 on dopamine D2 was 0.010. The α1B/D2 on dopamine D2 was determined as 0.023. The α1D/D2 at dopamine D2 worked out at 0.008. Moreover, at Alpha1B, the “Alpha1B (% inh)” value is 104.4 % inh.
Regarding `COc1cc2c(cc1OC)C(=O)N(CCCCN1CCN(c3ccccc3OC)CC1)C2` [GFR-VII-285], the Ki at α1B (Alpha1B) (setting [1]) is 0.0193 µM; on α1B (Alpha1B) (read-out: Kiα1B), 0.0193 µM; at Alpha1D (setting [2]) it was 0.0044 µM; on Alpha1D (read-out: Kiα1D) it was 0.0044 µM; on dopamine D1 (setting [3]), 0.531 µM; on dopamine D2 (setting [4]) it was 0.156 µM. Moreover, the Ki at dopamine D2 (read-out: KiD2) came out at 0.156 µM; at dopamine D5 it was 1.89 µM; at 5-HT1B, 0.13 µM; on 5-HT1D it was 0.298 µM; at 5-HT2A, 0.27 µM; at 5-HT2C it was 3.43 µM. For the same compound, the results for the Ki on 5-HT5A and on 5-HT7 were 2.44 µM and 0.228 µM, respectively. This compound returned a α1/D2 on dopamine D2 of 0.053. Moreover, the α1A/D2 at dopamine D2 is recorded as 0.006. Moreover, at dopamine D2, the α1B/D2 is listed as 0.124. For the same compound, the α1D/D2 at dopamine D2 was 0.028. Moreover, the “Alpha1B (% inh)” value at Alpha1B was determined as 101.5 % inh.
For `CC1Cc2ccccc2N1C(=O)CN1CCN(Cc2ccccc2)CC1` (stereo not shown) [STT-00185638, 2-[-4-(benzyl)-piperazin-1-yl]-1-(2-methy-2,3-dihydro-indol-1-yl)-ethanone], the Ki on dopamine D1 is 6.36 µM; at dopamine D2 it was 2.46 µM; on 5-HT3, 2.11 µM; on 5-HT5A it was 6.77 µM; at 5-HT7 it was 4.36 µM. Further, the “Alpha1B (% inh)” value on Alpha1B was determined as 16 % inh.
Consider `COc1ccc2c(c1)C(=O)N(CCCN1CCN(c3ccccc3OC)CC1)C2` [GFR-VII-273], for which the Ki on α1B (Alpha1B) (setting [1]) worked out at 0.323 µM; at α1B (Alpha1B) (read-out: Kiα1B) it was 0.323 µM; on Alpha1D (setting [2]), 0.0811 µM; on Alpha1D (read-out: Kiα1D), 0.0811 µM; at dopamine D2, 0.812 µM; on 5-HT1B it was 0.362 µM. In addition, the Ki on 5-HT1D came out at 1 µM; on 5-HT2A, 0.956 µM; on 5-HT5A it was 2.9 µM; on 5-HT7 it was 0.545 µM. Moreover, the α1/D2 at dopamine D2 is 0.12. For the same compound, on dopamine D2, the α1A/D2 was 0.080. In addition, the α1B/D2 on dopamine D2 is 0.398. For the same compound, the α1D/D2 at dopamine D2 is 0.100. Also, the “Alpha1B (% inh)” value at Alpha1B was found to be 102.5 % inh.
For the compound `COc1ccc2c(c1)C(=O)N(CCN1CCN(c3ccccc3OC)CC1)C2` [GFR-VII-280-HCl], the Ki was 0.0291 µM on α1B (Alpha1B); 0.0051 µM at Alpha1D; 1.74 µM on dopamine D2; 0.378 µM at 5-HT1B; 0.176 µM on 5-HT1D; 2.49 µM at 5-HT5A. The Ki at 5-HT7 amounted to 0.529 µM. This compound displayed a α1/D2 at dopamine D2 of 0.008. Moreover, the α1A/D2 on dopamine D2 was 0.005. Moreover, the α1B/D2 on dopamine D2 worked out at 0.017. Further, the α1D/D2 on dopamine D2 was 0.003. Moreover, the “Alpha1B (% inh)” value at Alpha1B was found to be 101 % inh.
